Experiments:
hFcγRIIb = molecular target: T1, hFcγRIIb (Homo sapiens, UniProt P31994); test: BLI binding to human Fc receptors; details: low data quality
T1 construct: made in house
T1 sequence (P31994 43-310): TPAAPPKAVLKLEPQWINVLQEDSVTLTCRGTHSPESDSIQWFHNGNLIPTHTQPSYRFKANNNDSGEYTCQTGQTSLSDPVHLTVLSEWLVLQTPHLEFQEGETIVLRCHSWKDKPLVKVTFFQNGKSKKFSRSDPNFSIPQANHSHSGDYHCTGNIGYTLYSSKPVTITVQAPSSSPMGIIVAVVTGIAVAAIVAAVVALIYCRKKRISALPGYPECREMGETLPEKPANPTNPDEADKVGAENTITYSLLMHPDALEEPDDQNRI

[1] = tested on: MDA-MB-468 xenograft model; test: MDA-MB-468 xenograft, Study MDAMB468-6; format: in vivo, NSG mice; details: 3 mg/kg, three weekly doses, i.p.
Method: Tumor volume was measured twice weekly until study day 80.
(§1) Female NSG mice were implanted with 1×10^6 MDA-MB-468 cells in 25% Matrigel H C (Corning #354248) subcutaneously. Once tumor volumes reached 100 mm^3, mice were randomized into treatment groups of 5 mice each and dosed with 0.3, 1, or 3 mg/kg every seven days for three total doses (q7dx3). Twenty-four hours prior to receiving each ADC dose, each animal was treated with 10 mg/kg hIVIG (Grifolds). Tumor volumes were measured twice per week, animals were euthanized when tumor volume reached 700-1000 mm^3. Stock concentrations of ADC were diluted to desired concentration (with 0.01% Tween20 in PBS) and injected i.p. into each treatment group

SKBR3 = test: ADCP with primary monocytes/macrophages; format: cell-based, human; details: 2 independent donors
Method: The B7-H4-expressing cell line SKBR3 and primary monocytes/macrophages were used to evaluate SGN-B7H4V-mediated ADCP. […] Phagocytosis of opsonized cells was assessed by flow cytometry.
SKBR3 tumor cells were fluorescently labeled with PKH26 (PKH26 Red Fluorescent Cell Membrane Labeling Kit, Sigma-Aldrich #PKH26GL-1KT), according to manufacturer instructions: SKBR3 cells were harvested with Versene (Gibco #15040-066) for 10 minutes and washed once with PBS. Cell were resuspended in 1 mL Diluent C (included in the PKH26 Red Fluorescent Cell Membrane Labeling Kit, Sigma-Aldrich #PKH26GL-1KT). In a separate tube, 1 mL Diluent C was mixed with 4 μL PKH26 dye by pipetting up and down. The dye solution was transferred to resuspended cells, quickly mixed by pipetting up and down several times, and incubated at room temperature for 5 minutes. Labeling reaction was stopped by adding 2 mL FBS (0.05-0.2 EU/ml Endotoxin, R&D Systems #S11550H). Cells were then washed once with RPMI 1640 (Gibco #11875-093) containing 10% FBS. Cells were resuspended in PBS at concentration of 0.8×10^6 cells/mL and transferred (300 μL/well) to a 96-well U-bottom plate (Falcon #353227). […] Phagocytosis is reported as the PKH26 geometric mean fluorescence intensity (gMFI) of gated CD14+/CD45+ cells analyzed using Flowjo. […]

[2] = tested on: MDA-MB-468 xenograft model; test: MDA-MB-468 xenograft dose range, Study MDAMB468-9; format: in vivo, NSG mice; details: three weekly doses
Method: Tumor volume was measured twice weekly until study day 85.
as §1, with “implanted with 1×10^6MDA-MB-468 cells in” for “implanted with 1×10^6 MDA-MB-468 cells in”, “each treatment group.” for “each treatment group”

“SGN-B7H4V: ADC of fully human IgG1 anti-B7-H4 mAb conjugated to monomethyl auristatin E (MMAE) via a protease-cleavable valine-citrulline linker (vedotin)” was tested, and the affinity (hFcγRIIb) was “weakest affinity”, the “anti-tumor activity (tumor volume)” value [1] was “transient regression of tumor volumes in all mice” and the ADCP activity (SKBR3) was “ADCP activity above that seen with the positive control”. The “anti-tumor activity (tumor volume)” value ([2]; 0.3 mg/kg) was “minimal anti-tumor activity”, the “anti-tumor activity (tumor volume)” value ([2]; 1 mg/kg) was “transient regression of tumor volumes in all mice” and the “anti-tumor activity (tumor volume)” value ([2]; 3 mg/kg) was “transient regression of tumor volumes in all mice”.
